Results from PMC7762994 (Viruses, 2020).
Where two headings read alike, the source gives them in different places.

Columns and labels:
OGG1 = OGG1 (Homo sapiens, UniProt O15527); assay: In vitro OGG1 activity assay; assay type: biochemical; details: for OGG1 activity (in words): Figure 3A
Hazara virus (HAZV) [1] = assay: microbe, parasite or virus in culture; assay type: cell-based; details: SW13, 24 h; for inhibition at 10 µM: read-out: Viral inhibition on primary infection (%)
[2] = Viability of SW13 cells by nuclei count in the HAZV antiviral assay; assay type: cell-based; details: human, SW13 cells inoculated with HAZV; SW13 cells, nuclei count relative to DMSO, 10 μM, 24 h
Vero cells = assay: Cell viability, MTT assay; assay type: cell-based; details: 48 h
CoV 229E = CoV 229E titer in Huh7 cells, end-point dilution assay; assay type: cell-based, Coronavirus 229E; details: MOI 5, 10 µM, 24 h
SARS-CoV-2 = assay type: cell-based
Hazara virus (HAZV) [3] = assay: microbe, parasite or virus in culture; assay type: cell-based
Huh7 cells = assay: Cell viability, resazurin assay; assay type: cell-based; details: Huh7 cells, 24, 48 or 72 h
EBOV = assay type: cell-based, Sudan Ebolavirus; details: Vero cells, MOI 0.5, 10 µM, 48 h
SW13 cells = assay: Viability of SW13 cells by nuclei count in the HAZV antiviral assay; assay type: cell-based; details: Homo sapiens
CCHFV = assay type: cell-based, Crimean-Congo hemorrhagic fever virus; details: Vero cells, MOI 1, 10 µM, 48 h

Chain of OGG1 (O15527 whole entry): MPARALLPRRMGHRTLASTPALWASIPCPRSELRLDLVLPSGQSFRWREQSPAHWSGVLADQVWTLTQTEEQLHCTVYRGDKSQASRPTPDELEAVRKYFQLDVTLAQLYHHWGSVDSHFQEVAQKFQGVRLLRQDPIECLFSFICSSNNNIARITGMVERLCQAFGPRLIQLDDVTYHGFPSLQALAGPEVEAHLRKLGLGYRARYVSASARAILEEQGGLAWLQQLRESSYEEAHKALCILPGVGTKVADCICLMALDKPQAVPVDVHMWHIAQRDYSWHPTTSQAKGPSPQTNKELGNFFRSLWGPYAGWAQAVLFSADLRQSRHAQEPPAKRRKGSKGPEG

Compound	IC50 (OGG1) [µM]	OGG1 activity (in words) (OGG1)	inhibition at 10 µM (Hazara virus (HAZV) [1]) [%]	viability at 24 h, 10 µM [2] [%]	toxicity profile, viability by MTT assay (Vero cells)	reduction of CoV 229E titer (CoV 229E) [%]	reduction of SARS-CoV-2 titer (SARS-CoV-2) [%]	IC50 (Hazara virus (HAZV) [3]; Hazara virus, SW13, 24 h, read-out: Antiviral on titer (µM) IC50 [µM]) [µM]	EC50 (Hazara virus (HAZV) [3]; Hazara virus, SW13, read-out: EC50 Viral titer) [µM]	inhibition at 10 µM (Hazara virus (HAZV) [3]; Hazara virus, Vero, 24 h, read-out: Viral inhibition on titer (%)) [%]	reduction of HAZV titer (Hazara virus (HAZV) [3]; SW13 cells, MOI 1, 10 µM, 24 h) [%]	toxicity profile, cellular viability by resazurin assay (Huh7 cells)	IC50 (Hazara virus (HAZV) [1]; read-out: Antiviral on primary infection IC50 [µM]) [µM]	EC50 (Hazara virus (HAZV) [1]; read-out: EC50 Infected cells (primary infection)) [µM]	reduction of EBOV viral titer (EBOV) [%]	EC50 (SW13 cells; SW13, 24 h, read-out: EC50 Living cells) [µM]	EC50 (SW13 cells; HAZV, SW13, MOI 1, 24 h, read-out: Viability (nuclei count) EC50) [µM]	reduction of CCHFV viral titer (CCHFV) [%]	reduction of HAZV viral titer (Hazara virus (HAZV) [3]; 100 µM, positive control) [%]
O=C(Nc1ccc(I)cc1)N1CCC(c2c[nH]c3ccccc23)CC1 [TH4448, 4‐(1H‐indol‐3‐yl)‐N‐(4‐iodophenyl)piperidine‐1‐carboxamide]	> 99	No OGG1 activity	98	82	–	–	–	–	–	–	–	–	–	–	–	–	–	–	–
O=C(Nc1ccc(I)cc1)N1CCC(n2c(=O)[nH]c3cc(Cl)ccc32)CC1 [TH3289]	–	Micromolar OGG1activity	58	77	favourable toxicity profile	84	58	14.7	14.7	95	94	favourable toxicity profile	18.7	18.7	40	46.5	47.5	70	–
NC(=O)c1ncn([C@@H]2O[C@H](CO)[C@@H](O)[C@H]2O)n1 [Ribavirin, reference compound]	–	–	–	–	–	–	–	–	–	–	–	–	–	–	–	–	–	–	98
